According to PubChem BioAssay AID1963834 (Molecular Pharmacology Branch, DTP, NCI, 2024):

Tested on: 873145-292-R-J1-PDC complex spheroid viability
Test: Anticancer human tumor 873145-292-R-J1-PDC patient-derived renal clear cell carcinoma cell line growth inhibition [POLQ]
Conditions: for IC50: curve of first compound; for viability, T/C: stronger effect = lower value
In short: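 Three-cell-type spheroids modelling solid tumor plus stroma served as the readout system; POL inhibitors were tested individually and in combination, concentration ranges set by clinical Cmax where known.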
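Further: spheroids exposed to compounds for 7 days before viability readout.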
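Wherever viability, T/C is given: luminescence signal used as surrogate for viable cell content; 100% = DMSO vehicle control viability.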

**Q.** `CCCS(=O)(=O)Nc1ccc(F)c(C(=O)c2c[nH]c3ncc(-c4ccc(Cl)cc4)cc23)c1F` + COC1C(OC(N)=O)C(O)C(Oc2ccc3c(O)c(NC(=O)c4ccc(O)c(CC=C(C)C)c4)c(=O)oc3c2C)OC1(C)C was tested. Which IC50 (second compound 0.0316 µM) did it give?
**A.** The IC50 was greater than 10 µM.

**Q.** What about the IC50 (second compound 0.1 µM) of the same compound?
**A.** Its IC50 is greater than 10 µM.

**Q.** And the IC50 (second compound 0.316 µM)?
**A.** Its IC50 is greater than 10 µM.

**Q.** What about the IC50 (second compound 1 µM) of the same compound?
**A.** Its IC50 is greater than 10 µM.

**Q.** And the IC50 (second compound 3.16 µM)?
**A.** The IC50 was greater than 10 µM.

**Q.** And the IC50 (second compound 10 µM)?
**A.** The IC50 was greater than 10 µM.

**Q.** And the viability, T/C (second compound 0.0316 µM, first compound 0.0316 µM)?
**A.** Its viability, T/C is 118%.

**Q.** And the viability, T/C (second compound 0.0316 µM, first compound 0.1 µM)?
**A.** Its viability, T/C is 98.8%.

**Q.** What about the viability, T/C (second compound 0.0316 µM, first compound 0.316 µM) of the same compound?
**A.** The viability, T/C was 99.4%.

**Q.** What about the viability, T/C (second compound 0.0316 µM, first compound 1 µM) of the same compound?
**A.** The viability, T/C was 107%.

**Q.** What about the viability, T/C (second compound 0.0316 µM, first compound 3.16 µM) of the same compound?
**A.** Its viability, T/C is 90.7%.

**Q.** What about the viability, T/C (second compound 0.0316 µM, first compound 10 µM) of the same compound?
**A.** Its viability, T/C is 62.5%.

**Q.** What about the viability, T/C (second compound 0.1 µM, first compound 0.0316 µM) of the same compound?
**A.** The viability, T/C was 113%.

**Q.** What about the viability, T/C (second compound 0.1 µM, first compound 0.1 µM) of the same compound?
**A.** Its viability, T/C is 108%.

**Q.** What about the viability, T/C (second compound 0.1 µM, first compound 0.316 µM) of the same compound?
**A.** Its viability, T/C is 108%.

**Q.** What about the viability, T/C (second compound 0.1 µM, first compound 1 µM) of the same compound?
**A.** Its viability, T/C is 112%.

**Q.** And the viability, T/C (second compound 0.1 µM, first compound 3.16 µM)?
**A.** Its viability, T/C is 89.8%.

**Q.** And the viability, T/C (second compound 0.1 µM, first compound 10 µM)?
**A.** Its viability, T/C is 57.7%.

**Q.** And the viability, T/C (second compound 0.316 µM, first compound 0.0316 µM)?
**A.** The viability, T/C was 104%.

**Q.** And the viability, T/C (second compound 0.316 µM, first compound 0.1 µM)?
**A.** The viability, T/C was 92.5%.

**Q.** What about the viability, T/C (second compound 0.316 µM, first compound 0.316 µM) of the same compound?
**A.** Its viability, T/C is 98.9%.

**Q.** And the viability, T/C (second compound 0.316 µM, first compound 1 µM)?
**A.** Its viability, T/C is 99.8%.

**Q.** And the viability, T/C (second compound 0.316 µM, first compound 3.16 µM)?
**A.** Its viability, T/C is 94.9%.

**Q.** What about the viability, T/C (second compound 0.316 µM, first compound 10 µM) of the same compound?
**A.** The viability, T/C was 57.3%.

**Q.** And the viability, T/C (second compound 1 µM, first compound 0.0316 µM)?
**A.** The viability, T/C was 96.9%.

**Q.** What about the viability, T/C (second compound 1 µM, first compound 0.1 µM) of the same compound?
**A.** Its viability, T/C is 111%.

**Q.** What about the viability, T/C (second compound 1 µM, first compound 0.316 µM) of the same compound?
**A.** The viability, T/C was 102%.

**Q.** And the viability, T/C (second compound 1 µM, first compound 1 µM)?
**A.** The viability, T/C was 107%.

**Q.** And the viability, T/C (second compound 1 µM, first compound 3.16 µM)?
**A.** The viability, T/C was 94.2%.

**Q.** And the viability, T/C (second compound 1 µM, first compound 10 µM)?
**A.** The viability, T/C was 60.9%.

**Q.** And the viability, T/C (second compound 3.16 µM, first compound 0.0316 µM)?
**A.** The viability, T/C was 102%.

**Q.** What about the viability, T/C (second compound 3.16 µM, first compound 0.1 µM) of the same compound?
**A.** Its viability, T/C is 103%.

**Q.** And the viability, T/C (second compound 3.16 µM, first compound 0.316 µM)?
**A.** The viability, T/C was 105%.

**Q.** What about the viability, T/C (second compound 3.16 µM, first compound 1 µM) of the same compound?
**A.** Its viability, T/C is 91.2%.

**Q.** And the viability, T/C (second compound 3.16 µM, first compound 3.16 µM)?
**A.** The viability, T/C was 89.5%.

**Q.** What about the viability, T/C (second compound 3.16 µM, first compound 10 µM) of the same compound?
**A.** Its viability, T/C is 53.2%.

**Q.** What about the viability, T/C (second compound 10 µM, first compound 0.0316 µM) of the same compound?
**A.** Its viability, T/C is 89.3%.

**Q.** And the viability, T/C (second compound 10 µM, first compound 0.1 µM)?
**A.** The viability, T/C was 93.3%.

**Q.** What about the viability, T/C (second compound 10 µM, first compound 0.316 µM) of the same compound?
**A.** The viability, T/C was 98.8%.

**Q.** What about the viability, T/C (second compound 10 µM, first compound 1 µM) of the same compound?
**A.** The viability, T/C was 106%.

**Q.** And the viability, T/C (second compound 10 µM, first compound 3.16 µM)?
**A.** The viability, T/C was 93.2%.

**Q.** What about the viability, T/C (second compound 10 µM, first compound 10 µM) of the same compound?
**A.** The viability, T/C was 64.7%.
